From ChEMBL document CHEMBL5104220, “Development of Gilteritinib-Based Chimeric Small Molecules that Potently Induce Degradation of FLT3-ITD Protein” (ACS Med Chem Lett, 2022) come the findings set out here.

For test [1], the target named is T1, Signal transducer and activator of transcription 5A (Homo sapiens) (UniProt P42229).
T1 sequence (whole entry): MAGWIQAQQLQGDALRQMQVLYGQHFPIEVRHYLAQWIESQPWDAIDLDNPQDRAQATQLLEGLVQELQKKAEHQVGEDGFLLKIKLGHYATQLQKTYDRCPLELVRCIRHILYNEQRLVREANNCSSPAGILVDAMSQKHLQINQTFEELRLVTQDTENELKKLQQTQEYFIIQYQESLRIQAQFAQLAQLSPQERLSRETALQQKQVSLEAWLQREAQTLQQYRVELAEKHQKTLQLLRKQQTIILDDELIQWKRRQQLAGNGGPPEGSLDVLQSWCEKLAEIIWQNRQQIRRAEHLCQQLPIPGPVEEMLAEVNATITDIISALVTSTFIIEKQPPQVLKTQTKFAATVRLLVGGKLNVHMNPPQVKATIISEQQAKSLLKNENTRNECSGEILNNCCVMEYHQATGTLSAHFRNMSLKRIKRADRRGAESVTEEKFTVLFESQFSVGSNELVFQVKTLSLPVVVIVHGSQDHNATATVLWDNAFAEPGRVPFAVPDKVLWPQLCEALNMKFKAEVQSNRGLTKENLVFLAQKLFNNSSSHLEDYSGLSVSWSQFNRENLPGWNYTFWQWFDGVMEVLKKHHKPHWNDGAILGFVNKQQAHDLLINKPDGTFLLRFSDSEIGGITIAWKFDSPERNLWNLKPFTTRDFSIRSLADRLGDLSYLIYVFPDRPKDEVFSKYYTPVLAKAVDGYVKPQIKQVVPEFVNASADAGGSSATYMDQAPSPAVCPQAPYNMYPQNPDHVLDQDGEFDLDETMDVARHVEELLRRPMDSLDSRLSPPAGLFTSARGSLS
Kind of test: Inhibition of STAT5 phosphorylation in human MV4-11 cells at 0.03 to 3 uM incubated for 24 hrs by Western blot analysis. The note with it: dose 0.03-3 µM. In kind it is cell-based.

The test system of test [2] is Protein cereblon/Receptor-type tyrosine-protein kinase FLT3 (Homo sapiens), P36888+Q96SW2 [UNDEFINED MUTATION]. Kind of test: PROTAC activity at CRBN/FLT3-ITD mutant in human MOLM-14 cells assessed as decrease in FLT3 protein expression at 0.03 to 3 uM incubated for 24 hrs by Western blot analysis. In kind it is cell-based. The note with it: dose 0.03-3 µM. (In western blotting, separated proteins are transferred to a membrane and probed.)

Test [3] has the same test system. In words: PROTAC activity at CRBN/FLT3-ITD mutant in human MV4-11 cells assessed as decrease in FLT3 protein expression at 0.03 to 3 uM incubated for 24 hrs by Western blot analysis. In kind it is cell-based. The note with it: dose 0.03-3 µM.
Test [4] has the same test system. In words: PROTAC activity at CRBN/FLT3-ITD mutant in human MV4-11 cells assessed as inhibition of FLT3 phosphorylation at 0.03 to 3 uM incubated for 24 hrs by Western blot analysis. In kind it is cell-based. Particulars: dose 0.03-3 µM.
The test system is the same in test [5]. Kind of test: PROTAC activity at CRBN/FLT3-ITD mutant in human MV4-11 cells assessed as inhibition of STAT5 phosphorylation at 0.03 to 3 uM incubated for 24 hrs by Western blot analysis. In kind it is cell-based. Particulars: dose 0.03-3 µM.
For test [6] the test system is unchanged. Kind of test: PROTAC activity at CRBN/FLT3-ITD mutant in human MOLM-14 cells assessed as decrease in FLT3 mRNA expression at 0.03 to 3 uM incubated for 24 hrs by RT-qPCR analysis. In kind it is cell-based. Particulars: dose 0.03-3 µM. A general note: In qPCR the cycle at which signal appears reflects the starting amount.
Test [7] shares this test system. Kind of test: PROTAC activity at CRBN/FLT3-ITD mutant in human MV4-11 cells at 30 nM measured upto 32 hrs in the presence of cycloheximide by Western blot analysis. In kind it is cell-based.
Test [8] shares this test system. In words: PROTAC activity at CRBN/FLT3-ITD mutant in human MV4-11 cells assessed as decrease in FLT3 protein expression at 0.3 to 3 uM incubated for 18 hrs in the presence of bafilomycin A1 by Western blot analysis. In kind it is cell-based. The note with it: dose 0.3-3 µM.
The test system of the next test is MV4-11. In words: Antiproliferative activity against human MV4-11 cells harboring FLT3-ITD mutant assessed as inhibition of cell proliferation incubated for 72 hrs by WST-8 assay. In kind it is functional, cell-based. Particulars: MV4-11, 72 h. (In general: Tetrazolium assays rely on reduction of a dye to a coloured formazan, in cell work by metabolically active cells.)

Another test concerns MOLM-14. In words: Antiproliferative activity against human MOLM-14 cells harboring FLT3-ITD mutant assessed as inhibition of cell proliferation incubated for 72 hrs by WST-8 assay. In kind it is functional, cell-based. The note with it: MOLM-14, 72 h.
The test system of test [9] is Protein cereblon/Receptor-type tyrosine-protein kinase FLT3 (Homo sapiens), P36888+Q96SW2 [UNDEFINED MUTATION]. In words: PROTAC activity at CRBN/FLT3-ITD mutant in human MOLM-14 cells assessed as decrease in IKZF1 protein expression at 0.01 to 0.3 uM incubated for 24 hrs by Western blot analysis. In kind it is cell-based. The note with it: dose 0.01-0.3 µM.
Test [10] has the same test system. In words: PROTAC activity at CRBN/FLT3-ITD mutant in human MV4-11 cells assessed as decrease in IKZF1 protein expression at 0.01 to 0.3 uM incubated for 24 hrs by Western blot analysis. In kind it is cell-based. The note with it: dose 0.01-0.3 µM.
The test system is the same in test [11]. Kind of test: PROTAC activity at CRBN/FLT3-ITD mutant in human MV4-11 cells assessed as decrease in LTK protein expression by Western blot analysis. In kind it is cell-based.
The test system is the same in test [12]. Kind of test: PROTAC activity at CRBN/FLT3-ITD mutant in human MV4-11 cells assessed as decrease in ALK protein expression by Western blot analysis. In kind it is cell-based.
Test [13] has the same test system. Kind of test: PROTAC activity at CRBN/FLT3-ITD mutant in human MOLM-14 cells assessed as decrease in LTK protein expression by Western blot analysis. In kind it is cell-based.
Test [14] shares this test system. Kind of test: PROTAC activity at CRBN/FLT3-ITD mutant in human MOLM-14 cells assessed as decrease in ALK protein expression by Western blot analysis. In kind it is cell-based.

Molecules are shown by their SMILES. The source made the active and inactive calls. The rule behind the calls is not given here.

As usually defined, the IC50 is the concentration at which inhibition is half-maximal.

Sequence of Protein cereblon/Receptor-type tyrosine-protein kinase FLT3 (Homo sapiens), P36888+Q96SW2 [UNDEFINED MUTATION] (P36888 whole entry, looked up, stated change not applied): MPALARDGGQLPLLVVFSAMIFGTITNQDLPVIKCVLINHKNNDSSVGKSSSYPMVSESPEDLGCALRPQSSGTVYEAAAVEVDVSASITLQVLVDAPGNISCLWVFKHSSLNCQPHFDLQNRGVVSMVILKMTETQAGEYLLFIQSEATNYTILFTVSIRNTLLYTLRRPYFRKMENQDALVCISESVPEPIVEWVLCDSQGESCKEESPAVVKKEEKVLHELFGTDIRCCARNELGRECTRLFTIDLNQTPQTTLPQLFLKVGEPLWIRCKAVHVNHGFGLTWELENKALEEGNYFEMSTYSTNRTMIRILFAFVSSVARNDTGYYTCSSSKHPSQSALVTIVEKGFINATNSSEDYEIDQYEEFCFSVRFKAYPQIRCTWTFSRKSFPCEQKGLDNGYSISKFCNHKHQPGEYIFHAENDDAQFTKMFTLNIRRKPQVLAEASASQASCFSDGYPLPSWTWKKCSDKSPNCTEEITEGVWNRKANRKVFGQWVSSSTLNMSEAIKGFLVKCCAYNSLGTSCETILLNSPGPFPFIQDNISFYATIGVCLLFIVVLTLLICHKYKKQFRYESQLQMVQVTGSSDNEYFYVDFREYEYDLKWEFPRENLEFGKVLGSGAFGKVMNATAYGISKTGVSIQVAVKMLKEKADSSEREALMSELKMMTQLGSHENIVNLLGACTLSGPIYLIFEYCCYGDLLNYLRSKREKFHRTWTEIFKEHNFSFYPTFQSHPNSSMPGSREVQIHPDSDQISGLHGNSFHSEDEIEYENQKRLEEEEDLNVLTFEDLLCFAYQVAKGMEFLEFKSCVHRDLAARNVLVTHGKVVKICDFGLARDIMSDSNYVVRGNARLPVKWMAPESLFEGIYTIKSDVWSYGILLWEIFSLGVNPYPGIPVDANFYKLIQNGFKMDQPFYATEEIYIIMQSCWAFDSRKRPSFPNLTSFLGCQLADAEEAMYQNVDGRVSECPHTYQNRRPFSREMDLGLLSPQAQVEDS
Sequence of Protein cereblon/Receptor-type tyrosine-protein kinase FLT3 (Homo sapiens), P36888+Q96SW2 [UNDEFINED MUTATION] (Q96SW2 whole entry, looked up, stated change not applied): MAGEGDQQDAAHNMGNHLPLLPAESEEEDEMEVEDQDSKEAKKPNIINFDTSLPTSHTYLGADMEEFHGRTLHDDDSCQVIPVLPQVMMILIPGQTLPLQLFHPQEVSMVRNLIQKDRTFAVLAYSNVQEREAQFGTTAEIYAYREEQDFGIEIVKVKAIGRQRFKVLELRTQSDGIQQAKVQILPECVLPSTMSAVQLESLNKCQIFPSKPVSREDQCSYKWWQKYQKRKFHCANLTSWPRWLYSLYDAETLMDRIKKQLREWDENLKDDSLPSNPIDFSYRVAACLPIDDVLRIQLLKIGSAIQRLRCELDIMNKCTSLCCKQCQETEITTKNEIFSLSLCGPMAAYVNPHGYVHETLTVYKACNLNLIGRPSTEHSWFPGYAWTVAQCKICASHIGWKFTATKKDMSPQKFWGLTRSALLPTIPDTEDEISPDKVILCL

Consider `CCc1nc(C(N)=O)c(Nc2ccc(N3CCC(N4CCN(C)CC4)CC3)c(OC)c2)nc1NC1CCOCC1`, for which the inhibition result in [1] is “Active”.
Same read-out and setting: to `CC1(COc2ccc3c(c2)ncn3-c2ccc3cccc(N4CCC(N)CC4)c3n2)COC1` belongs “Active”.
Turning to `CCc1nc(C(N)=O)c(Nc2ccc(N3CCC(N4CCN(CC5CCN(C(=O)CCOCCOCCOCCOCCNc6cccc7c6C(=O)N(C6CCC(=O)NC6=O)C7=O)CC5)CC4)CC3)c(OC)c2)nc1NC1CCOCC1` (stereo unspecified), the outcome in test [2], in [3], in test [4] and in test [5] was Active.
With `CNC(=O)c1cc(Oc2ccc(NC(=O)Nc3ccc(Cl)c(C(F)(F)F)c3)cc2)ccn1`, the inhibition result in test [1] is “Active”.
Take `CCc1nc(C(N)=O)c(Nc2ccc(N3CCC(N4CCN(CC5CCN(C(=O)CCOCCOCCNc6cccc7c6C(=O)N(C6CCC(=O)NC6=O)C7=O)CC5)CC4)CC3)c(OC)c2)nc1NC1CCOCC1` (stereo unspecified): the result in [2], in [3], in [6], in [7], in test [8] and in [9] was Active. In addition, the outcome in test [10], in test [11], in test [12], in test [13] and in [14] was Active. In addition, the IC50 with MV4-11 worked out at 0.9 nM; with MOLM-14 it was 2.8 nM.
As for `CC(C)(C)c1cc(NC(=O)Nc2ccc(-c3cn4c(n3)sc3cc(OCCN5CCOCC5)ccc34)cc2)no1`, the inhibition result in test [1] is “Active”.
